What all share (format): in vivo, human
Assay [1] concerns healthy middle-aged men and women. Nature of the assay: Hangover cure and rehabilitation effect after excessive drinking of liquor (self-rated discomfort level). As to conditions: 1 cysteine tablet (1200 mg L-cysteine) before dinner. The protocol:
(§1) Thirty-six healthy middle-aged men and women were chosen and divided into four groups, namely, the control group, the cysteine group, the 5 g oligopeptide nutrition group (prepared in Example 3) and the 10 g oligopeptide nutrition group (prepared in Example 3). Ten to twenty minutes before dinner (at time 18:00), 150 mL of plain boiled water at a temperature of 35° C. was prepared for each person in advance. In the control group, the subjects only drank plain boiled water; in the cysteine group, the subjects took 1 cysteine tablet (each comprising 1200 mg L-cysteine, produced by U.S. Now Food) when drinking water; in the 5 g oligopeptide nutritional group, the subjects put 5 g of the oligopeptide nutritional powder into a cup, poured 150 mL of plain boiled water, stirred to dissolve and drink; in the 10 g oligopeptide nutritional group, the subjects put 10 g of the oligopeptide nutritional powder into a cup, poured 150 mL of plain boiled water, stirred to dissolve and drink.
Dinners started at 18:00 and ended at 20:00. Each of 36 subjects drank 200 mL of liquor (Kweichow Moutai Liquor 2018, 53% vol. 106 PROOF) within two hours. […] All subjects' forms were collected, and the subjects' conditions were recorded and analyzed by classification.

Assay [2] has the same test system. Nature of the assay: Hangover cure and rehabilitation effect after excessive drinking of red wine (self-rated discomfort level). The settings on record: 1 cysteine tablet (1200 mg L-cysteine) before dinner. The protocol: as §1, with “3), and they experienced the hangover cure and rehabilitation effect of the oligopeptide nutritional powder for excessive drinking of red wine.” for “3).”, “dinner,” for “dinner (at time 18:00),”, “person.” for “person in advance.”
Dinners started at 18:00 and ended at 20:00. Each of 36 subjects drank 400 mL of red wine (France Saint Arnaud Cabernet Sauvignon 2015, 13.5% vol. Cabernet Sauvignon). […] All subjects' forms were collected, and the subjects' conditions were recorded and analyzed by classification.

Assay [3] shares this test system. Description: Summary of hangover cure and rehabilitation effects on excessive drinking of liquor and red wine. As to conditions: liquor and red wine summarised, 1200 mg cysteine. On the procedure:
as §1
Dinners started at 18:00 and ended at 20:00. Each of 36 subjects drank 200 mL of liquor (Kweichow Moutai Liquor 2018, 53% vol. 106 PROOF) within two hours. The subjects' dinners were mainly Chinese stir-fried dishes, including fish, meat and vegetables, with rice as the staple food, and the dinners lasted two hours. In the next morning at 8:00 (12 hours after drinking) and in the third morning at 8:00 (36 hours after drinking), the subjects filled in the forms, indicating personal feelings. The personal feelings included 5 levels, namely, level 0 indicated no discomfort, level 1 indicated slight tiredness, level 2 indicated feeling of dizziness, level 3 indicated headache, level 4 indicated nausea or vomiting, requiring stay in bed. All subjects' forms were collected, and the subjects' conditions were recorded and analyzed by classification.
Thirty-six healthy middle-aged men and women were chosen and divided into four groups, namely, the control group, the cysteine group, the 5 g oligopeptide nutrition group (prepared in Example 3) and the 10 g oligopeptide nutrition group (prepared in Example 3), and they experienced the hangover cure and rehabilitation effect of the oligopeptide nutritional powder for excessive drinking of red wine. Ten to twenty minutes before dinner, 150 mL of plain boiled water at a temperature of 35° C. was prepared for each person. […]
Dinners started at 18:00 and ended at 20:00. […] All subjects' forms were collected, and the subjects' conditions were recorded and analyzed by classification.

Assay [4] in a line: Effect on blood alcohol content after drinking liquor or red wine (breath alcohol tester). The protocol: Thirty healthy middle-aged men and women were chosen and divided into three groups, namely, the control group, the cysteine group and the 10 g oligopeptide nutrition group. After drinking liquor and red wine, the effects of the oligopeptide nutritional powder on the blood alcohol contents were compared. Ten to twenty minutes before dinner, 150 mL of plain boiled water at a temperature of 35° C. was prepared for each person. In the control group, the subjects only drank plain boiled water; in the cysteine group, the subjects took 1 cysteine tablet (each comprising 1200 mg L-cysteine, produced by U.S. Now Food) when drinking water; in the 10 g oligopeptide nutritional group, the subjects put 10 g of the oligopeptide nutritional powder into a cup, poured 150 mL of plain boiled water, stirred to dissolve and drink.
Dinners started at 18:00 and ended at 20:00. Each of 30 subjects drank 200 mL of liquor (Kweichow Moutai Liquor 2018, 53% vol. 106 PROOF) or 400 mL of red wine (France Saint Arnaud Cabernet Sauvignon 2015, 13.5% vol. Cabernet Sauvignon) within two hours. The subjects' dinners were mainly Chinese stir-fried dishes, including fish, meat and vegetables, with rice as the staple food, and the dinners lasted two hours. Every 30 minutes after the start of drinking, the breath alcohol tester (Mr. Black-03) was used to test the blood alcohol content of each subject for four hours, then test once every two hours; on the 16th hour after drinking, the test was over. The data of the subjects were recorded separately, and the statistical analysis of data was performed by groups. The blood alcohol metabolism curve of each group was completed by Gaussian Fitting method. For oligopeptide nutritional powder, after 4 hours of excessive drinking of liquor and red wine, namely, 2 hours after the end of meals, the blood alcohol content was measured, as shown in Table 3.

Marks after values point to notes of the source that are not given here. Where only a bound is given, the exact number is not on record here.

The record followed here is patent US20230027104A1, “NUTRITIONAL POWDER COMPRISING OLIGOPEPTIDES AND APPLICATIONS THEREOF” (Suzhou Jianyuan Biotechnology Co., Ltd., priority 2021, published 2023).

Regarding `N[C@@H](CS)C(=O)O` [cysteine tablets, L-cysteine], the “subjects with obvious discomfort (>2 degree of discomfort)” value in assay [1] (12 hours after drinking 200 mL liquor) and in assay [2] (12 hours after drinking 400 mL red wine) was 44.4% in each case. Besides, the “subjects with obvious discomfort” value in assay [1] (36 hours after drinking 200 mL liquor) and in assay [2] (36 hours after drinking 400 mL red wine) was 22.2% each time. Also, the “Proportion of > degree 2 discomfort 12 hours after drinking wine” value in assay [3] is reported as 44.4%; in assay [3] (listed as Cysteine) it was 44.4%^b. Also, the entries for the “Proportion of > degree 2 discomfort 36 hours after drinking wine” value in assay [3] (listed as Cysteine) and in assay [3] (listed as cysteine) were 22.2%^a and 22.2%, respectively. In assay [4] (200 mL liquor, 1200 mg cysteine before dinner, breath alcohol tester), the “Blood alcohol content 4 hours after drinking liquor” value is reported as 42.3 ± 3.1^b mg/100 mL. In addition, in assay [4] (400 mL red wine, 1200 mg cysteine before dinner, breath alcohol tester), the “Blood alcohol content 4 hours after drinking red wine” value is 38.7 ± 6.8^ab mg/100 mL. The “blood alcohol content versus alcohol content threshold for drunk driving” value in assay [4] (within 4 hours of drinking liquor or red wine, cysteine group (1200 mg)) is reported as greater than 20 mg/100 mL.
